Source: patent US8759334B2, “Compounds useful for the treatment of metabolic and inflammatory diseases” (Galapagos NV, priority 2011, dated 2014)

Key:
GPR43 [1] = target: T1, GPR43 (Homo sapiens, UniProt O15552); assay: Calcium mobilization assay without probenecid; type: cell-based; details: GPR43 stably expressing cells, triggered with sodium acetate at EC80, read-out: GPR43 assay without probenicid IC50
T1 construct: expressed in transfected cells
T1 sequence (O15552 1-330): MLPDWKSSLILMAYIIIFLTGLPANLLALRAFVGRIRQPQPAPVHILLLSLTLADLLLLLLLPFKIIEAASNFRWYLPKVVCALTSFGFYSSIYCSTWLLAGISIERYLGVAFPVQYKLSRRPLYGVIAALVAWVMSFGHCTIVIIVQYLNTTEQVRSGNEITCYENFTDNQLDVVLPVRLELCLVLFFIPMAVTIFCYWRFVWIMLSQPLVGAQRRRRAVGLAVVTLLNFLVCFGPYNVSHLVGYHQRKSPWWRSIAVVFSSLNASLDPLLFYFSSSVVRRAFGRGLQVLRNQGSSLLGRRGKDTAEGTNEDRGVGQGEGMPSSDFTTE
Method: The following assay can be used for determination of GPR43 activation. The assay measures intracellular calcium release induced by activation of GPR43. On day 1, GPR43 stably expressing cells were detached with mild trypsinization (Trypsin, 0.25% with EDTA 4Na, 5× diluted in PBS) centrifuged at 1000 rpm for 5 min and resuspended at 6.000 cells/25 μL medium (DMEM supplemented with 10% FBS, 10 μg/mL puromycin and 1% Pen/Strep). The cells were distributed in poly-D-lysine coated 384 well plates (black with clear bottom, 25 μL/well) and incubated overnight at 37° C. 10% CO2. On day 2, 25 μL of a fluorescent Ca^2+ indicator (Calcium 4 assay; Molecular Devices) was added on top of the cells and incubated for 2 h at 37° C. Subsequently, compounds at increasing concentration (10 μL/well) were added to the plate and incubated for 15 min at 37° C. Finally the cells were triggered with sodium acetate at EC80 concentration (concentration which gives 80% of the activity of the GPR43) and the Ca-flux was measured simultaneously to the trigger injection on a fluorescence plate reader (FlexStation3), this measures the antagonist activity of the compounds. To measure agonist activity of the compounds, compound was added to the well and the Ca-flux was measured simultaneously to the injection of compound.

GPR43 [2] = target: T1, GPR43; assay: Calcium mobilization assay with probenecid; type: cell-based; details: GPR43 stably expressing cells; triggered with sodium acetate at EC80; 2.5 mM probenecid; read-out: GPR43 assay with probenicid IC50
In short: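 Cells stably expressing GPR43 plated overnight at 37 °C, then loaded 2 h with Calcium 4 dye plus 2.5 mM probenecid. […]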

IC50 (GPR43 [1]) [nM]	IC50 (GPR43 [2]) [nM]	SMILES
> 1000	> 1000	CC1(C(=O)NCc2ccc(Cl)cc2)CCN1C(=O)Oc1ccc(Cl)cc1 (stereo not drawn) [Compound 2, 2-(4-Chloro-benzylcarbamoyl)-2-methyl-azetidine-1-carboxylic acid 4-chloro-phenyl ester]
> 1000	> 1000	CC1(C(=O)Nc2ccc(Cl)cc2)CCN1C(=O)Cc1ccc(Cl)cc1Cl (stereo not drawn) [Compound 4, 1-[2-(2,4-Dichloro-phenyl)-acetyl]-2-methyl-azetidine-2-carboxylic acid (4-chloro-phenyl)-amide]
> 1000	> 1000	Cc1cc(C)cc(CC(=O)N2CCC2(C)C(=O)N(C)Cc2cccc(Cl)c2)c1 (stereo not drawn) [Compound 5, 1-[2-(3,5-Dimethyl-phenyl)-acetyl]-2-methyl-azetidine-2-carboxylic acid (3-chloro-benzyl)-methyl-amide]
501 to 1000	> 1000	Cc1ccc(CN(C)C(=O)C2(C)CCN2C(=O)Cc2cc(C)cc(C)c2)cc1 (stereo not drawn) [Compound 6, 1-[2-(3,5-Dimethyl-phenyl)-acetyl]-2-methyl-azetidine-2-carboxylic acid methyl-(4-methyl-benzyl)-amide]
101 to 500		CN(Cc1ccc(Cl)cc1)C(=O)C1(C)CCN1C(=O)Cc1csc2ccccc12 (stereo not drawn) [Compound 13, 1-(2-Benzo[b]thiophen-3-yl-acetyl)-2-methyl-azetidine-2-carboxylic acid (4-chloro-benzyl)-methyl-amide]
501 to 1000		CN(Cc1ccc(Cl)cc1)C(=O)C1(C)CCN1C(=O)Cc1ccc2ccccc2c1 (stereo not drawn) [Compound 14, 2-Methyl-1-(2-naphthalen-2-yl-acetyl)-azetidine-2-carboxylic acid (4-chloro-benzyl)-methyl-amide]
101 to 500		Cc1cc(C)cc(CC(=O)N2CCC2(C)C(=O)N(CCO)Cc2ccc(Cl)cc2)c1 (stereo not drawn) [Compound 47, 1-[2-(3,5-Dimethyl-phenyl)-acetyl]-2-methyl-azetidine-2-carboxylic acid (4-chloro-benzyl)-(2-hydroxy-ethyl)-amide]
501 to 1000		COC(=O)CCN(Cc1ccc(Cl)cc1)C(=O)C1(C)CCN1C(=O)Cc1cc(C)cc(C)c1 (stereo not drawn) [Compound 62, 3-((4-Chloro-benzyl)-{1-[2-(3,5-dimethyl-phenyl)-acetyl]-2-methyl-azetidine-2-carbonyl}-amino)-propionic acid methyl ester]
101 to 500		Cc1cc(C)cc(CC(=O)N2CCC2(C)C(=O)N(CCCC(=O)O)Cc2ccc(Cl)cc2)c1 (stereo not drawn) [Compound 64, 4-((4-Chloro-benzyl)-{1-[2-(3,5-dimethyl-phenyl)-acetyl]-2-methyl-azetidine-2-carbonyl}-amino)-butyric acid]
> 1000		Cc1cc(C)cc(CC(=O)N2CCC2(C)C(=O)N(CCC(=O)O)Cc2ccc(Cl)cc2)c1 (stereo not drawn) [Compound 65, 3-((4-chloro-benzyl)-{1-[2-(3,5-dimethyl-phenyl)-acetyl]-2-methyl-azetidine-2-carbonyl}-amino)-propionic acid]
101 to 500		CC1(C(=O)N(CCCO)Cc2ccc(Cl)cc2)CCN1C(=O)Cc1csc2ccccc12 (stereo not drawn) [Compound 70, 1-(2-Benzo[b]thiophen-3-yl-acetyl)-2-methyl-azetidine-2-carboxylic acid (4-chloro-benzyl)-(3-hydroxy-propyl)-amide]
> 1000		Cc1cc(C)cc(CC(=O)N2CC[C@@]2(C)C(=O)N(CC(=O)O)Cc2ccc(Cl)cc2)c1 [Compound 81a, ((4-Chloro-benzyl)-{(S)-1-[2-(3,5-dimethyl-phenyl)-acetyl]-2-methyl-azetidine-2-carbonyl}-amino)-acetic acid]
> 1000		CN(Cc1ccc(Cl)cc1)C(=O)C1(C)CCN1C(=O)Cc1csc2ccc(Cl)cc12 (stereo not drawn) [Compound 92, 1-[2-(5-Chloro-benzo[b]thiophen-3-yl)-acetyl]-2-methyl-azetidine-2-carboxylic acid (4-chloro-benzyl)-methyl-amide]
> 1000		Cc1ccc2scc(CC(=O)N3CCC3(C)C(=O)N(C)Cc3ccc(Cl)cc3)c2c1 (stereo not drawn) [Compound 93, 1-[2-(5-Methyl-benzo[b]thiophen-3-yl)-acetyl]-2-methyl-azetidine-2-carboxylic acid (4-chloro-benzyl)-methyl-amide]
